Laboratory results reported in US10016417B2, “Extended release formulation of a direct thrombin inhibitor” (Diakron Pharmaceuticals Inc., priority 2011, dated 2018).

What was measured:
[1] = Multiple once-daily dosing study: safety; assay type: in vivo, human
Description: (§1) Randomized, double-blind, placebo-controlled, stepwise study of the pharmacokinetics (PK), pharmacodynamics (PD), PK/PD characteristics and safety of multiple once-daily oral dosing of DPOC-4088 in healthy young male subjects
10 healthy volunteers participated in the first step of the multiple dose study (8 received DPOC-4088 and 2 received placebo). […] Minor AEs were reported. All AEs were grade 1, transient and were resolved. No bruising (except for puncture site hematomas) or petechiae were reported and the physical (including neurological) exams were normal in all volunteers. The lab exams were within normal limits or deviating without clinical significance.

thrombin [2] = target: T1, thrombin (Homo sapiens, UniProt P00734); experiment: Single dose crossover study: activated partial thromboplastin time (aPTT); assay type: in vivo; design: from tissue; host or cells: blood plasma of dosed subjects; conditions: 24 hrs post-dose
Protocol: (§2) As used herein, the term “activated partial thromboplastin time (aPTT)” is the period required for clot formation in recalcified blood plasma after contact activation and the addition of platelet substitutes. This measure is used to address the intrinsic and common pathways of coagulation.
(§3) Four formulations having same composition as those described in Example 1 were dosed in a clinical study. […] (reported as the international normalized ratio [INR]); (i.e. PD parameters) and (3) assess the safety of DPOC-4088 in healthy volunteers.
(§4) Twelve subjects aged 21 to 45 (mean 32.9±8.55) years were enrolled, and were dosed in 4 periods after an overnight fast and had blood drawn for PK/PD determinations immediately prior to dosing and at specified time intervals for 48 hrs post-dosing. Each dosing period was separated by a ≥5-day washout. The observed PK and PD parameters are tabulated as Table 12.

thrombin [3] = target: T1, thrombin; experiment: Single dose crossover study: ecarin clotting time (ECT); assay type: in vivo; design: a prothrombin-thrombin intermediate which retains the full molecular weight of prothrombin; from tissue; host or cells: blood plasma of dosed subjects
Protocol: In the assay, a known quantity of ecarin is added to the plasma of a patient treated with hirudin.

thrombin [4] = target: T1, thrombin; experiment: Multiple once-daily dosing study: ECT; assay type: in vivo; design: a prothrombin-thrombin intermediate which retains the full molecular weight of prothrombin; from tissue; host or cells: blood plasma of dosed subjects; conditions: at maximum levels, from regression analyses
Description: ECT is prolonged in a specific and linear fashion with increasing concentrations of hirudin.

thrombin [5] = experiment: Single dose crossover study: thrombin time (TT); assay type: in vivo, human; conditions: by 48 hrs; returned to within
Protocol: As used herein, the term “thrombin time (TT)” is the time required for plasma fibrinogen to form […], measured as the time for clot formation after exogenous thrombin is added to citrated plasma.
as §3, §4

[6] = Multiple once-daily oral dosing study, Dose Step 1 100 mg q.d.: PK; assay type: in vivo, human; conditions: assuming dose linearity from Day 10 PK data
Protocol: as §1
Preliminary Safety, PK, and PD Results Dose Step 1: 100 mg q.d.
Mean PK profiles of DPOC-4088 on Day 1 (first dose) and Day 10 (steady-state) are shown in FIGS. 14 a-b, respectively. • On Day 1, the mean PK profile was in line with observation from the previous single dose study (DPOC-001). • The degree of accumulation to steady-state levels was modest with a Day 10/Day 1 ratio for AUC24h of 1.4. […] Pharmacodynamics

[7] = Single dose crossover study: safety; assay type: in vivo, human
Protocol: as §3
as §4, with “washout.” for “washout. The observed PK and PD parameters are tabulated as Table 12.”

thrombin [8] = target: T1, thrombin; experiment: Single dose crossover study: prothrombin time PT (INR); assay type: in vivo; design: from tissue; host or cells: blood plasma of dosed subjects
Protocol: As used herein, the term “prothrombin time (PT)” is the rate at which prothrombin is converted to thrombin in citrated blood with added calcium. This is used to assess the extrinsic coagulation system of the blood
as §3, §4

thrombin [9] = target: T1, thrombin; experiment: Multiple once-daily dosing study: aPTT; assay type: in vivo; design: from tissue; host or cells: blood plasma of dosed subjects; conditions: at maximum levels, from regression analyses
Description: as §2, §1
Mean maximum and minimum fold changes compared to baseline (Day 1, pre dose) in ECT, aPTT and PT on Day 10 are shown in Table 15. […] Minimum changes in ECT and aPTT on Day 10 were 1.12 and 1.10 respectively (Table 16). These values are lower than the target values defined in the protocol which were 2 and 1.5, respectively, at steady-state trough levels (see below). • Linear regression on the changes in ECT and aPTT versus DPOC-4088 plasma levels was performed. […] For ECT the changes would be 2.4 and 3.1 fold respectively. • For reference, for dabigatran, clinically relevant doses result in changes in aPTT of approximately 1.50 fold at trough levels and 2-fold at maximum levels. For ECT these changes are approximately 2-fold at trough levels and 3-fold at maximum levels.

Structure (SMILES): O=C(Cn1c(Cl)cnc(NCC(F)(F)c2ccccn2)c1=O)NCc1ncccc1F [DPOC-4088, 3-fluoro-2-pyridylmethyl-3-(2,2-difluoro-2-(2-pyridyl)ethylamino)-6-chloropyrazin-2-one-1-acetamide]
- safety conclusion ([1]; 100 mg level, after 10 days of oral administration): very safe
- treatment emergent serious adverse events (AEs) ([1]; 100 mg q.d., 8 on DPOC-4088): No treatment emergent serious adverse events
- mean aPTT above the pre-dose aPTT (thrombin [2]; 100 mg): 12-15%
- mean aPTT above the pre-dose aPTT (thrombin [2]; 200 mg): 21-24%
- mean 24 hr ECT above the pre-dose ECT (thrombin [3]; 100 mg dose): 21-23%
- mean 24 hr ECT above the pre-dose ECT (thrombin [3]; 200 mg dose): 35-36%
- ECT expected fold change from baseline (thrombin [4]; Day 10, 200 mg once daily): 2.4 fold
- ECT expected fold change from baseline (thrombin [4]; Day 10, 300 mg once daily): 3.1 fold
- mean TT relative to pre-dosing TT (thrombin [5]): 1-15%
- expected maximum DPOC-4088 levels ([6]; daily dose 200 mg): ~2000 nM
- expected maximum DPOC-4088 levels ([6]; daily dose 300 mg): ~3000 nM
- safety and tolerability ([7]; 100 and 200 mg doses, both release formulations): safe and well-tolerated
- Adverse events (AEs), subjects ([7]; most grade 1, unrelated or unlikely related): 9/12
- mean peak INR (thrombin [8]; single dose 100 mg formulations): 1.15-1.17
- mean peak INR (thrombin [8]; single dose 200 mg formulations): 1.28-1.30
- time at which mean peak INRs were reached (thrombin [8]; single doses of 100 or 200 mg): 4 h
- aPTT expected fold change from baseline (thrombin [9]; Day 10, 200 mg once daily): 1.8 fold
- aPTT expected fold change from baseline (thrombin [9]; Day 10, 300 mg once daily): 2.2 fold
